Consider ten compounds from ChEMBL document CHEMBL1121787, “Some 14 beta-substituted analogues of N-(cyclopropylmethyl)normorphine” (J Med Chem, 1981).

Structures are written as SMILES. Where “and” joins values, the source holds several entries; their conditions need not be identical. Equal entries are not always repeated. Calls of active or inactive are those of the source. The calls are words filed in the database; no cut-off is given here.

The species named for one experiment is Cavia porcellus. Briefly: Opioid agonistic activity was measured in guinea pig ileum. Format: functional.
For experiment [1], the species on record is Mus musculus. Briefly: Opioid antagonist activity of compound was measured as inhibiting the binding of normorphine to mouse vas deferens. In kind it is functional.
For experiment [2], the species on record is Mus musculus. Briefly: Opioid agonistic activity was measured in mouse vas deferens. Format: functional.
For experiment [3], the system named is Opioid receptors; mu & kappa. The conditions noted are these: Cavia porcellus; Ileum.
The species entered for experiment [4] is Mus musculus. Briefly: Opioid agonistic activity was measured in mouse vas deferens. Format: functional.
For experiment [5], the species on record is Mus musculus.

As usually defined, the Inhibition is the change of the read-out against control, counted positive when it falls. A lower Inhibition goes with a weak effect. The compound `O=C1CC[C@@]2(O)[C@H]3Cc4ccc(O)c5c4[C@@]2(CCN3CC2CC2)[C@H]1O5` [NALTREXONE] gave an Inhibition in the experiment listed under Cavia porcellus of 25%.
`C=CCN1CC[C@]23c4c5ccc(O)c4O[C@H]2C(=O)CC[C@@]3(O)[C@H]1C5` [NALOXONE]: the Ke in the experiment filed under Mus musculus [1] is given as 3.66 nM.
Broadly, the IC50 is the concentration that gives 50% inhibition. Read a low IC50 as higher potency. Regarding `Oc1ccc2c3c1O[C@H]1[C@@H](O)C=C[C@@]4(S)C(C2)N(CC2CC2)CCC314` (some centres undefined), the IC50 in the experiment filed under Mus musculus [2] is 218 nM; in the experiment listed under Cavia porcellus it was 39.1 nM. Also, the Ke was 22.9 nM and 20 nM in the experiment listed under Mus musculus [1]; 1.69 nM in experiment [3].
On to `Oc1ccc2c3c1O[C@H]1[C@@H](O)C=C[C@H]4C(C2)N(CC2CC2)CCC341` (some centres undefined), for which the Ke in experiment [3] is 0.8 nM. This compound also displayed an IC50 in the experiment filed under Cavia porcellus of 2.16 nM.
For `O=C1C=C[C@@]2([N+](=O)[O-])C3Cc4ccc(O)c5c4C2(CCN3CC2CC2)[C@H]1O5` (some centres undefined), the IC50 stood at 330 nM in the experiment filed under Mus musculus [2], 580 nM in the experiment filed under Mus musculus [4] and 41.2 nM in the experiment listed under Cavia porcellus. Besides, the Ke in the experiment listed under Mus musculus [1] was determined as 14.9 nM; in experiment [3] it was 4.44 nM.
Consider `C=CCN1CC[C@]23c4c5ccc(O)c4O[C@H]2[C@@H](O)C=C[C@H]3[C@H]1C5` [NALORPHINE], for which the IC50 in the experiment listed under Mus musculus [2] turned out to be 535 nM; in the experiment filed under Cavia porcellus, 24.3 nM. The Ke in the experiment filed under Mus musculus [1] was determined as 28.7 nM; in experiment [3] it was 4.47 nM.
For `O=C1C=C[C@@]2(Br)C3Cc4ccc(O)c5c4C2(CCN3CC2CC2)[C@H]1O5` (some centres undefined), the Ke in the experiment listed under Mus musculus [1] was 2.35 nM and 2.83 nM; in experiment [3] it was 1.36 nM.
Turning to `O=C1C=C[C@@]2(Cl)C3Cc4ccc(O)c5c4C2(CCN3CC2CC2)[C@H]1O5` (some centres undefined), the Ke came to 16.6 nM in the experiment filed under Mus musculus [1] and 3.92 nM in experiment [3].
For `Oc1ccc2c3c1O[C@H]1[C@@H](O)C=C[C@@]4(O)C(C2)N(CC2CC2)CCC314` (some centres undefined), the Ke in the experiment listed under Mus musculus [1] is 10.5 nM and 9 nM; in experiment [3], 2.35 nM.
As to `CN1CC[C@]23c4c5ccc(O)c4O[C@H]2[C@@H](O)C=C[C@H]3[C@H]1C5`, in the experiment filed under Mus musculus [5], the Ke result is “inactive”.
